Tests used:
potassium ion-channel = conditions: cited from earlier work
male CF-1 mice = conditions: mouse, in vivo

conkunitzin-S1
Pore-blocking activity (potassium ion-channel): potassium ion-channel pore-blocking toxin
95% confidence limits of the ED50 of seizure activity (male CF-1 mice): 0.3 to 2 nmol
Behaviour observed after injection (male CF-1 mice): spastic running followed by tonic extension seizures
ED50 of seizure activity (male CF-1 mice): 1 nmol per mouse
